# In patent US12617777B2, “GPR84 antagonists and uses thereof” (Liminal BioSciences Limited, priority 2021, dated 2026):
# Target: T1, human GPR84 receptor (Homo sapiens, UniProt Q9NQS5)
# T1 construct: host or cells: HEK293, transient transfection
# Test: Gαi biosensor BRET assay in HEK293 cells (antagonism of ZQ-16)
# Assay type: cell-based
# Conditions: HEK293, single concentration 2 μM (designated A)
# Text: Background—The following assays can be used for determination of GPR84 activation in living HEK293 cells. The Gai BRET biosensor (Gagnon et al., 2018; Gales et al., 2006. Nat StructMol Biol. 13, 778-86; Saulieres et al., 2012. Nat Chem Biol. 8, 622-30) allows to directly monitor GPR84-mediated activation of Gai. The Gai biosensor consists of a Rluc8-tagged Gαi2 subunit, a GFP10-tagged Gγ2 subunit, and an untagged Gβ1. Agonist stimulation and GPR84 activation triggers a physical separation between the RLuc8-Gαi donor and the GFP10-Gγ2 acceptor, resulting in a decrease in BRET signal whose amplitude is correlated to ligand efficacy (Gales et al., 2006). Moreover, signaling functions of GPCRs are tightly regulated by endocytosis, the targeting of receptors to endosomes and their sorting to lysosomes or recycling to the plasma membrane. The early endosomes (EEs) trafficking assay (Namkung et al., 2016. Nat Commun. 7, 12178) uses Rluc8-tagged GPR84 and Renilla GFP (rGFP) attached to the FYVE domain from human endofin/zinc finger FYVE domain-containing protein 16, which binds phosphatidylinositol 3-phosphate in EEs. Agonist stimulation of GPR84-Rluc8 leads to trafficking of the receptor to EEs, and ensuing increase of the donor concentration relative to the rGFP-FYVE acceptor anchored in the same cellular compartment, and thus results in an increase in BRET signal.
# Plasmids—The cDNA clones for human GPR84 receptor, human Gai2, Gp1, and Gy2 were obtained from the cDNA Resource Center (www.cdna.org). GFP10 (F64L, S147P, S202F and H231L variant of Aequorea victoria Green Fluorescent Protein) gBlocks gene fragments (Integrated DNA Technologies, IA) and linker were inserted in frame at the N-terminus of human Gγ2. Rluc8 (A55T, C124A, S130A, K136R, A143M, M185V, M253L, and S287L variant of the Renilla renformis luciferase) gBlocks gene fragment was inserted with linkers in frame in between residues 91 and 92 of Gai2 or at the C-terminus of GPR84. The FYVE domain from human endofin (residues Q739 to K806) attached in frame at the C terminus of a humanized Renilla GFP (rGFP), were synthesized as gBlocks gene fragments.
# Bioluminescence Resonance Energy Transfer (BRET) Measurement—HEK293 cells were transfected with GPR84-Rluc8 and rGFP-FYVE for the EEs trafficking biosensor or with GPR84, Gαi2-Rluc8, GFP10-Gγ2, and Gβ1 for the Gαi biosensor. The following day, transiently transfected cells were seeded in 96-well white clear bottom microplates coated with poly-D-lysine and left in culture for 24 hours. Cells were washed once with Tyrode's buffer (140 mmol/L NaCl, 1 mmol/L CaCl2, 2.7 mmol/L KCl, 0.49 mmol/L MgCl2, 0.37 mmol/L NaH2PO4, 5.6 mmol/L glucose, 12 mmol/L NaHCO3, and 25 mmol/L HEPES, pH 7.5) before performing assays in Tyrode's buffer. Test compounds were incubated with cells for 5 (Gαi) or 15 (EEs) minutes at 37° C. before addition of 200 nmol/L of the GPR84 agonist ZQ-16 (2-(Hexylthio)-6-hydroxy-4(3H)-pyrimidinone) for 5 minutes at room temperature (Gαi) or 30 minutes at 37° C. (EEs). The Rluc8 substrate coelenterazine 400A (Prolume, Lakeside, AZ) was added at a final concentration of 5 μmol/L and BRET readings were collected using an Infinite M1000 microplate reader (Tecan, Morrisville, NC). BRET^2 readings between Rluc8 and GFP10 or rGFP were collected by sequential integration of the signals detected in the 370 to 450 nm (Rluc8) and 510 to 540 nm (GFP10, rGFP) windows. The BRET signal was calculated as the ratio of light emitted by acceptor (GFP10, rGFP) over the light emitted by donor (Rluc8). The values were corrected to net BRET by subtracting the background BRET signal obtained in cells transfected with Rluc8 constructs alone. Ligand-promoted net BRET values were calculated by subtracting vehicle-induced net BRET from ligand-induced net BRET.
# T1 sequence (Q9NQS5 whole entry): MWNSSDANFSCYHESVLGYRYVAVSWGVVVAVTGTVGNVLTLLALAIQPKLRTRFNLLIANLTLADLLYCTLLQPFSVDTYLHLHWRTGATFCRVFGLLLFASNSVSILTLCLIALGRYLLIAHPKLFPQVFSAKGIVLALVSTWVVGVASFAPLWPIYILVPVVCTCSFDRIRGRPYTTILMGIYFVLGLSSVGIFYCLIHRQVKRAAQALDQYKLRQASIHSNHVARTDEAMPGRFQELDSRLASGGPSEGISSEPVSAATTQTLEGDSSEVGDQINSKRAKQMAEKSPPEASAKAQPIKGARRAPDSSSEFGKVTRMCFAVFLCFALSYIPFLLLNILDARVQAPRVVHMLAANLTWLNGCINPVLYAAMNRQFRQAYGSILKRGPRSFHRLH
row,inhibition at 2 µM,Compound
1,> 75%,CN(C)c1cc(C#CCNc2ccccc2)ccc1-c1cn(CC2CCCCO2)nn1 (centres unmarked) [Compound I-203]

# Same assay, conditions: HEK293, single concentration 5 μM (designated D)
row,inhibition at 5 µM,Compound
1,≤ 25%,Cc1cc(C#CC2CC2)ccc1-c1cn(C[C@@H]2CCCCO2)nn1 [Compound I-174]
2,50 to 75%,Cc1cc(C#CC2CC2)ccc1-c1cn(C[C@H]2CCCCO2)nn1 [Compound I-175]
3,≤ 25%,Cc1cc(N2CCC3(CC2)CNC3)ccc1-c1cn(CC2CCCCO2)nn1 (centres unmarked) [Compound I-186]

# Same assay, conditions: HEK293, single concentration 10 μM (designated F)
row,Compound,inhibition at 10 µM
1,Cc1cc(C#CCN2CCCN(C)CC2)ccc1-c1cn(CC2CCCCO2)nn1 (centres unmarked) [Compound I-159],≤ 25%
2,COC(C)(C)Cn1cc(-c2ccc(C#CCNc3ccccc3)cc2C)nn1 [Compound I-163],≤ 25%
3,Cc1cc(C#CC2CC2)ccc1-c1cn(CC2CCC(C)(C)O2)nn1 (centres unmarked) [Compound I-164],> 75%
4,Cc1cc(N2CC3(CCNC3)C2)ccc1-c1cn(CC2CCCCO2)nn1 (centres unmarked) [Compound I-167],≤ 25%
5,Cc1cc(N2CC3(CCN(C)C3)C2)ccc1-c1cn(CC2CCCCO2)nn1 (centres unmarked) [Compound I-168],≤ 25%
6,CNC1CCCN(c2ccc(-c3cn(CC4CCCCO4)nn3)c(C)c2)C1 (centres unmarked) [Compound I-170],≤ 25%
7,Cc1cc(N2CCCC(N(C)Cc3ccccc3)C2)ccc1-c1cn(CC2CCCCO2)nn1 (centres unmarked) [Compound I-171],> 75%
8,Cc1cc(N2CCC3(CC2)CN(Cc2ccccc2)C3)ccc1-c1cn(CC2CCCCO2)nn1 (centres unmarked) [Compound I-173],≤ 25%
9,Cc1cc(C#CC2CC2)ccc1-c1cn(CC2CNCCO2)nn1 (centres unmarked) [Compound I-180],≤ 25%
10,Cc1cc(C#CC2CC2)ccc1-c1cn(CC2CN(C)CCO2)nn1 (centres unmarked) [Compound I-181],≤ 25%
11,Cc1cc(N2CC3(CNC3)C2)ccc1-c1cn(CC2CCCCO2)nn1 (centres unmarked) [Compound I-182],≤ 25%
12,Cc1cc(N2CC(N(C)Cc3ccccc3)C2)ccc1-c1cn(CC2CCCCO2)nn1 (centres unmarked) [Compound I-185],≤ 25%
13,COC(=O)N1CCCCC1Cn1cc(-c2ccc(C#CC3CC3)cc2C)nn1 (centres unmarked) [Compound I-190],≤ 25%
14,CC(=O)NCC#Cc1ccc(-c2cn(C[C@H]3CCCCO3)nn2)c(C)c1 [Compound I-193],25 to 50%
15,CN(C)c1cc(C#CC2CC2)ccc1-c1cn(CC2CCOCC2)nn1 [Compound I-200],25 to 50%
16,CN(C)c1cc(N2CC(C)(C)C2)ccc1-c1cn(CC2CCCCO2)nn1 (centres unmarked) [Compound I-202],> 75%
17,Cc1cc(C#CC2CC2)cnc1-c1cn(CC2CCCO2)nn1 (centres unmarked) [Compound I-204],25 to 50%
18,COCc1cc(C#CC2CC2)ccc1-c1cn(CC2CCCCO2)nn1 (centres unmarked) [Compound I-206],50 to 75%
19,Cc1cc(C#CCNC(=O)C(C)(C)C)ccc1-c1cn(CC2CCCCO2)nn1 (centres unmarked) [Compound I-208],25 to 50%
20,CC(C)c1cc(C#CC2CC2)ccc1-c1cn(CC2CCOCC2)nn1 [Compound I-212],≤ 25%
21,COC(=O)c1cc(C#CC2CC2)ccc1-c1cn(CC2CCCCO2)nn1 (centres unmarked) [Compound I-214],≤ 25%
22,Cc1cc(C#CC2(O)CC2)ccc1-c1cn(CC2CCCCO2)nn1 (centres unmarked) [Compound I-215],50 to 75%
23,OCc1cc(C#CC2CC2)ccc1-c1cn(CC2CCCCO2)nn1 (centres unmarked) [Compound I-216],≤ 25%
24,N#CCc1cc(C#CC2CC2)ccc1-c1cn(CC2CCCCO2)nn1 (centres unmarked) [Compound I-217],25 to 50%
25,CS(=O)(=O)c1cc(C#CC2CC2)ccc1-c1cn(CC2CCCCO2)nn1 (centres unmarked) [Compound I-219],≤ 25%
26,CCc1cc(C#CC2CC2)cnc1-c1cn(CC2CCCCO2)nn1 (centres unmarked) [Compound I-220],> 75%
27,Cc1cc(C#CC2CC2)ccc1-c1cn(C[C@H]2COC(C)(C)O2)nn1 [Compound I-222],50 to 75%
28,Cc1cc(C#CC2CC2)ccc1-c1cn(CC(O)CO)nn1 (centres unmarked) [Compound I-224],25 to 50%

# Next, values leading:
row,inhibition at 10 µM,Compound
1,50 to 75%,Cc1cc(N2CCC2)ccc1-c1cn(CC2CCCCO2)nn1 (centres unmarked) [Compound I-157]
2,≤ 25%,Cc1cc(N2CC(F)(F)C2)ccc1-c1cn(CC2CCCCO2)nn1 (centres unmarked) [Compound I-158]
3,> 75%,CCc1ccc(C#CC2CC2)cc1-c1cn(CC2CCCCO2)nn1 (centres unmarked) [Compound I-160]
4,≤ 25%,COCCn1cc(-c2ccc(C#CCNc3ccccc3)cc2C)nn1 [Compound I-161]
5,25 to 50%,COC(C)Cn1cc(-c2ccc(C#CCNc3ccccc3)cc2C)nn1 (centres unmarked) [Compound I-162]
6,≤ 25%,Cc1cc(N2CC3(CCN(Cc4ccccc4)C3)C2)ccc1-c1cn(CC2CCCCO2)nn1 (centres unmarked) [Compound I-169]
7,≤ 25%,Cc1cc(N2CCC3(CC2)CN(C)C3)ccc1-c1cn(CC2CCCCO2)nn1 (centres unmarked) [Compound I-172]
8,≤ 25%,Cc1ccc(C#CCNc2ccccc2)cc1-c1cn(CC2CCCCO2)nn1 (centres unmarked) [Compound I-178]
9,25 to 50%,FC(F)(F)c1ccc(C#CC2CC2)cc1-c1cn(CC2CCCCO2)nn1 (centres unmarked) [Compound I-179]
10,≤ 25%,Cc1cc(N2CCNCC2)ccc1-c1cn(CC2CCCCO2)nn1 (centres unmarked) [Compound I-183]
11,≤ 25%,CNC1CN(c2ccc(-c3cn(CC4CCCCO4)nn3)c(C)c2)C1 (centres unmarked) [Compound I-184]
12,≤ 25%,Cc1cc(C#CC2CC2)ccc1-c1cn(CC2CCCCN2S(C)(=O)=O)nn1 (centres unmarked) [Compound I-191]
13,≤ 25%,COCC(=O)N1CCCCC1Cn1cc(-c2ccc(C#CC3CC3)cc2C)nn1 (centres unmarked) [Compound I-192]
14,≤ 25%,CCn1cc(-c2ccc(-c3cn(CC4CCCCO4)nn3)c(C)c2)cn1 (centres unmarked) [Compound I-194]
15,≤ 25%,Cc1cc(C#CC2CC2)cnc1-c1cn(CC2CCOCC2)nn1 [Compound I-196]
16,50 to 75%,Cc1cc(C#CC2CC2)ccc1-c1cn(CC2CC(C)(C)O2)nn1 (centres unmarked) [Compound I-197]
17,25 to 50%,C(#CC1CC1)c1ccc(-c2cn(CC3CCCCO3)nn2)c(N2CCOCC2)c1 (centres unmarked) [Compound I-198]
18,≤ 25%,C(#CC1CC1)c1ccc(-c2cn(CC3CCCCO3)nn2)c(N2CCC2)c1 (centres unmarked) [Compound I-199]
19,≤ 25%,Cc1ccc(C#CCNCc2ccccc2)cc1-c1cn(CC2CCCCO2)nn1 (centres unmarked) [Compound I-201]
20,25 to 50%,Cc1cc(C#CCN2CCCCC2=O)ccc1-c1cn(CC2CCCCO2)nn1 (centres unmarked) [Compound I-205]
21,50 to 75%,Cc1cc(C#CC2CC2)ccc1-c1cn(CC2CCC(F)(F)CO2)nn1 (centres unmarked) [Compound I-207]
22,≤ 25%,Cc1ccc(N2CC(C)(C)C2)cc1-c1cn(CC2CCCCO2)nn1 (centres unmarked) [Compound I-213]
23,≤ 25%,C[S+]([O-])c1cc(C#CC2CC2)ccc1-c1cn(CC2CCCCO2)nn1 (centres unmarked) [Compound I-218]

# Same assay, conditions: HEK293 cells, antagonism of 200 nmol/L ZQ-16
row,Compound,IC50
1,Cc1cc(C#CC2CC2)ccc1-c1cn(CC2CCC(C)(C)O2)nn1 (centres unmarked) [Compound I-164],1000 to 3000 nM
2,Cc1cc(N2CCCC(N(C)Cc3ccccc3)C2)ccc1-c1cn(CC2CCCCO2)nn1 (centres unmarked) [Compound I-171],1000 to 3000 nM
3,Cc1cc(C#CC2CC2)ccc1-c1cn(C[C@H]2CCCCO2)nn1 [Compound I-175],1000 to 3000 nM
4,CN(C)c1cc(N2CC(C)(C)C2)ccc1-c1cn(CC2CCCCO2)nn1 (centres unmarked) [Compound I-202],1000 to 3000 nM
5,CN(C)c1cc(C#CCNc2ccccc2)ccc1-c1cn(CC2CCCCO2)nn1 (centres unmarked) [Compound I-203],1000 to 3000 nM
6,Cc1cc(C#CCNC(=O)c2ccccc2)ccc1-c1cn(CC2CCCCO2)nn1 (centres unmarked) [Compound I-209],> 2000 nM
7,CCc1cc(C#CC2CC2)cnc1-c1cn(CC2CCCCO2)nn1 (centres unmarked) [Compound I-220],300 to 1000 nM

# The remaining lines, values ahead:
row,IC50,Compound
1,> 3000 nM,CCc1ccc(C#CC2CC2)cc1-c1cn(CC2CCCCO2)nn1 (centres unmarked) [Compound I-160]
2,> 3000 nM,Cc1cc(C#CC2CC2)ccc1-c1cn(C[C@@H]2CCCCO2)nn1 [Compound I-174]
3,300 to 1000 nM,Cc1cc(C#CC2(O)CCCC2)ccc1-c1cn(CC2CCCCO2)nn1 (centres unmarked) [Compound I-210]
